Like-named read-outs stand apart in the source and are kept apart here.
Assays:
[1] = system: U87 cells (lower chamber; HUVEC and astrocytes barrier); assay: Transwell BBB model, peptide passage and accumulation in tumor cells (also with antibody pre-treatment); assay type: in vitro ADME, human; conditions: transwell BBB model: HUVEC (5×10^5) and astrocytes (5×10^5) in upper chamber, U87 (1×10^4) in lower chamber; FITC-labeled peptide; 36 hours; confocal microscopy count; M ± SE, 3 independent experiments
Excerpt: Fluorescently labeled cells were counted in the lower chamber.
Next, we assessed the mHsp70- and integrin (αvβ3, αvβ5)-mediated penetration of the TKD and RAS70 via the BBB ( Figure 9B ). […] When anti-αvβ3 and anti-αvβ5 mAbs were employed, we detected the decrease of NGL-RGD and RAS70 penetration via the BBB but not the NGL and TKD peptides.

[2] = system: C6 cells (lower chamber; HUVEC and astrocytes barrier)
Procedure: (§1) Then, a peptide labeled with a fluorescent label was introduced into the upper chamber and co-incubation was carried out for 12, 24 and 36 hours. At the end of the incubation, the tumor cells were washed with cold phosphate-buffered saline (PBS) and fixed with a 4% solution of paraformaldehyde in PBS. Nuclei were stained with 4’,6-diamidino-2-phenylindole (DAPI). Fluorescent images were obtained using a Leica TCS SP8 confocal microscope (Leica, Germany). To avoid possible cross-interference of different fluorochromes, images for DAPI and FITC were obtained using a sequential sample scanning method. Fluorescently labeled cells were counted in the lower chamber. To estimate the mHsp70-mediated uptake of chaperone-targeted peptides tumor cells prior to incubation were pre-treated with anti-Hsp70 monoclonal antibodies SPA-810 (1:250, Stressgen) and SPA-815 (1:250 Stressgen). To exclude integrin (αvβ3, αvβ5)-mediated penetration of RAS70 tumor cells prior to incubation with peptides were pre-treated with anti- αvβ3 (1:200 clone LM609, ZMS1030, Sigma-Aldrich, USA), -αvβ5 (1:200 clone P1F6, MAB1961Z, Sigma-Aldrich, USA) monoclonal antibodies.
(§2) Then, a peptide labeled with a fluorescent dye (FITC) was introduced into the upper chamber and co-incubation was carried out for 12, 24 and 36 hours. At the end of the incubation, the tumor cells were washed with cold phosphate-buffered saline (PBS) and fixed with a 4% solution of paraformaldehyde in PBS. Nuclei were stained with 4’,6-diamidino-2-phenylindole (DAPI).
(§3) Data from 3 independent experiments are presented as M ± SE. […] Data from 3 independent experiments are presented as M ± SE. ** p < 0.01 for testing mean expression levels.

[3] = RAS70 solution stability study (HPLC-QTOF/MS); assay type: physicochemical; conditions: 1 mg/mL stock in sterile 0.9% sodium chloride, diluted working solutions, Protein LoBind tubes, HPLC-QTOF/MS peak area normalized to internal standard dalargin vs freshly prepared solutions
Excerpt: HPLC grade reagents include acetonitrile (1.00029) and formic acid (5.33002), were purchased from Sigma Aldrich. The deionized HPLC grade water was obtained through a Milli-Q system (Millipore, Milford, MA, USA). Sodium acetate (Sigma Aldrich, St. Louis, USA) was used for MS calibration. Dalargin (Tyrosyl-D-alanyl-glycyl-phenylalanyl-leucyl-arginine; UNII V13505565P) was used as an internal standard. Protein LoBind® Tubes (022431081, Eppendorf, Hamburg, Germany). The stock solution of RAS70 were prepared by dissolving 1 mg of RAS70 reference standard in 1 mL of a sterile solution of 0.9% sodium chloride in water. After centrifugation the supernatant were transferred into Protein LoBind Tubes (Eppendorf, Hamburg, Germany). Working standard solutions for stability study were prepared using a dilution method. All of the solutions were stored away from light at RT and in a refrigerator at +4°C. The samples were analyzed on a HPLC-QTOF/MS system (Bruker Daltonics, Bremen, Germany) that consisted of an Elute UHPLC coupled to Q-TOF Maxis Impact equipped with an electrospray ionization source ( Supplementary Figure S1 ). […] Chromatograms and mass spectra were analyzed using DataAnalysis® 5.0 software (Bruker Daltonics GmbH, Bremen, Germany). […]

primary GBM IBD cells = assay: Cell motility analysis; assay type: cell-based, human; conditions: 56 h recording
Procedure: The cell speed of the primary GBM culture was determined using Image ExFluorer, an automatic cell imaging device (LCI, Korea). The cells were seeded into 24-well plates, and the cell nuclei were labelled with the fluorescent dye Hoechst 33342. The plates were then placed in an integrated incubator with temperature control (37°C) and 5% CO2. The fluorescence was stimulated at 405 nm using a long-focus semi-apochromatic 20× lens with a numerical aperture of 0.45. The primary IBD cell line was divided into 4 wells, each with five visual fields: two untreated wells on distinct matrices (Collagen I and Fibrinogene) and two wells containing RAS70 peptide on matrices.
FOVs were captured every 15 minutes over 56 hours, resulting in images with a resolution of 2.560 × 2.160 pixels (0.33 μm/px). Real-time focus correction was used. The captured frames were analyzed using the NIS-Elements software with a module for automatic segmentation, quantification, and tracking of individual cells. Cell nuclei (with a diameter of more than 2.5 μm) were recognized in images, and the X-Y coordinates of the nuclei were recorded. Cell movement tracks were built according to the coordinates of the nuclei, and the motility metrics (average speed, maximal speed, and track straightness) were calculated.
Additionally, we evaluated the effect of RAS70 peptide on cell motility of primary glioblastoma culture. In order to investigate the possible influence of the RAS70 peptide on the invasive capacity of tumor cells, we conducted an experiment in which we recorded cell motility on two different substrates (Collagen I, Fibrinogen) for 56 h.

[4] = system: GL261 cells (lower chamber; HUVEC and astrocytes barrier); assay: Transwell BBB model, peptide passage and accumulation in tumor cells; conditions: transwell BBB model: HUVEC (5×10^5) and astrocytes (5×10^5) in upper chamber, GL261 (1×10^4) in lower chamber; FITC-labeled peptide; 36 hours; confocal microscopy count; M ± SE, 3 independent experiments
Procedure: as §1, §2, §3

[5] = system: C6 cells (lower chamber; HUVEC and astrocytes barrier); assay: as above; conditions: transwell BBB model: HUVEC (5×10^5) and astrocytes (5×10^5) in upper chamber, C6 (1×10^4) in lower chamber; FITC-labeled peptide; 36 hours; confocal microscopy count; M ± SE, 3 independent experiments
Procedure: as §1, §2, §3

[6] = system: C6, GL261, and T98G cells; assay: MTT test, overall statement for all cell lines studied; conditions: fluorescently labeled peptides, 7.5, 75, 750 µg/mL, 24, 48 and 72 hours
Procedure: 3-(4,5-dimethylthiazol-2-yl)-2,5-diphenyltetrazolium bromide (MTT) assay was performed to evaluate the cytotoxic effect of TKD-sCy5, RAS70-sCy5, and NGL-RGD-sCy5 peptides. The C6, GL261, and T98G cells were seeded in 96-well plates (Thermo Fisher Scientific, Waltham, USA) at concentration of 5*10^3 cells in 100 µL per well, plates were incubated at 37°C in 5% CO2. After 24 hours, peptides were added to the culture medium for final concentration of 7.5, 75, and 750 μg/mL; plates were incubated for 24, 48 and 72 hours. […] At the end of the incubation period, 1 mg/mL MTT solution was added for 4 hours and dissolved with DMSO. The absorbance was measured at 570 nm using Varioskan LUX Multimode Microplate Reader (Thermo Fisher Scientific, Waltham, USA).
Subsequently, we analyzed the cytotoxic effect of the peptides (RAS70, TKD, NGL, NGL-RGD) using the MTT test at various peptides concentrations (7.5, 75, 750 µg/mL) and co-incubation times of 24, 48 and 72 hours.

Row | Structure (SMILES) | fluorescently labeled tumor cells in the lower chamber [1] [cells] | fluorescently labeled tumor cells in the lower chamber [2] [cells] | time for which RAS70 solution was stable ([3]; storage at RT away from light) [week] | time for which RAS70 solution was stable ([3]; storage in refrigerator at +4°C away from light) [week] | effect on average cell speed (primary GBM IBD cells; IBD cells on Collagen I) | effect on maximum cell speed (primary GBM IBD cells; IBD cells on Collagen I) | effect on track straightness (primary GBM IBD cells; IBD cells on Collagen I) | effect on motility metrics (average speed, max speed, track straightness) (primary GBM IBD cells; IBD cells on fibrinogen) | fluorescently labeled tumor cells in the lower chamber [4] [cells] | fluorescently labeled tumor cells in the lower chamber [5] [cells] | cytotoxic effect (MTT test) [6]
1 | CC(C)C[C@H](NC(=O)[C@H](CC(C)C)NC(=O)[C@H](CC(N)=O)NC(=O)[C@H](CC(N)=O)NC(=O)[C@H](CC(=O)O)NC(=O)[C@H](CCCCN)NC(=O)[C@@H](N)[C@@H](C)O)C(=O)NCC(=O)N[C@@H](CCCNC(=N)N)C(=O)N[C@@H](Cc1ccccc1)C(=O)N[C@@H](CCC(=O)O)C(=O)N[C@@H](CC(C)C)C(=O)N[C@@H](CO)C(=O)NCC(=O)NCCC(=O)N[C@@H](CCCNC(=N)N)C(=O)NCC(=O)N[C@@H](CC(=O)O)C(=O)O [RAS70] | 578 ± 67 | 567 ± 72 | 1 | 1 | no effect on the average cell speed | slightly diminished maximum cell speed | increased the straightness of the trajectories | did not affect any of the measured motility metrics |  |  | 
2 | CC(C)C[C@H](NC(=O)[C@H](CC(C)C)NC(=O)[C@H](CC(N)=O)NC(=O)[C@H](CC(N)=O)NC(=O)[C@H](CC(=O)O)NC(=O)[C@H](CCCCN)NC(=O)[C@@H](N)[C@@H](C)O)C(=O)NCC(=O)N[C@@H](CCCNC(=N)N)C(=O)N[C@@H](Cc1ccccc1)C(=O)N[C@@H](CCC(=O)O)C(=O)N[C@@H](CC(C)C)C(=O)N[C@@H](CO)C(=O)NCC(=O)O [TKD] | 337 ± 38 |  |  |  |  |  |  |  | 289 ± 51 | 301 ± 35 | did not reveal the toxic effect
